We go through three molecules from publication PMC9365693 (Nature, 2022).

The subject of test [1] is Staphylococcus simulans. In words: Sytox green membrane damage assay, S. simulans. The note with it: Sytox green, Gram-positive bacteria, 20 °C, pH 7.2, 2 min before and 6 min after antibiotic; triplicates. Format: cell-based. As for the experimental part: (§1) The bacterial cultures were grown overnight at 30 °C in TSB media for S. simulans and at 37 °C in LB medium for Bacillus subtilis. Secondary cultures were grown for 3 h until OD600 = 0.5 was reached. The bacterial cells were then centrifuged at 1,500g for 10 min at 4 °C and washed twice with 10 ml of buffer (10 mM Tris, 100 mM NaCl, 1 mM MgCl2 and 0.5% glucose, pH 7.2). The bacterial cells were resuspended to an OD600 = 10 in the buffer and used for the experiment. […] For the assay, 1 μl of the bacterial suspension was added to 1 ml of buffer. For the ion leakage assays, 1 μl of the DiSC-2 probe from a 1 mM stock was added to the cuvette and the fluorescence was measured between a wavelength of 650 nm and 670 nm (bandwidth of […]) for 2 min before the addition of the antibiotic and 6 min after. For the Sytox green leakage assays, 1 μl of the Sytox green probe from a 0.25 mM stock was added to the cuvette and the fluorescence was measured between a wavelength of 500 nm and 520 nm (bandwidth of […]) for 2 min before the addition of the antibiotic and 6 min after. All experiments were performed in triplicates.

The subject of the next test is S. simulans. In words: MIC, S. simulans (given with permeabilization assay concentrations). The test is classed as cell-based.
The subject of test [2] is Staphylococcus simulans. Description: DiSC membrane depolarization (ion leakage) assay, S. simulans. The test is classed as cell-based. To be noted: DiSC-2 probe, Gram-positive bacteria (Fig. 4h and Extended Data Fig. 10b,c), 20 °C, pH 7.2, 2 min before and 6 min after antibiotic; triplicates. As for the experimental part:
as §1

Another test deals with B. subtilis. Description: MIC, B. subtilis (given with permeabilization assay concentrations). Format: cell-based, Bacillus subtilis. The method, then: as §1
Setting [3] is: species not clearly assigned (S. simulans by word order).

Ends that are not written are not given here.

For the molecule `CN[C@H](CC(C)C)C(=O)N[C@H]1C(=O)N[C@@H](CC(N)=O)C(=O)N[C@H]2C(=O)N[C@H]3C(=O)N[C@H](C(=O)N[C@H](C(=O)O)c4cc(O)cc(O)c4-c4cc3ccc4O)[C@H](O)c3ccc(c(Cl)c3)Oc3cc2cc(c3O[C@@H]2O[C@H](CO)[C@@H](O)[C@H](O)[C@H]2O[C@H]2C[C@](C)(N)[C@H](O)[C@H](C)O2)Oc2ccc(cc2Cl)[C@H]1O` [vancomycin], the “membrane damage, Sytox green (in words)” value with Staphylococcus simulans [1] was “Such effects were again absent”. Further, in the test with S. simulans (setting [3]), the “concentration stated as 10× MIC” value is 10 µM.

nisin: the “decrease in membrane potential / depolarization (in words)” value with Staphylococcus simulans [2] is “Membrane depolarization was also observed”. Besides, the “concentration stated as 1× MIC” value with S. simulans (setting [3]) stood at 0.01 µM.

As to “plectasin: lipid II binder plectasin (GFGCNGPWDEDDMQCHNHCKSIKGYKGGYCAKGGFVCKCY; ends and bridges not checked; cysteine pairing not given here; UniProt Q53I06 56-95, looked up) [reference compound]”, the “concentration stated as 10× MIC” value in the test on B. subtilis amounted to 0.2 µM. In the test with Staphylococcus simulans [1], the “membrane damage, Sytox green (in words)” value is “Such effects were again absent”. Also, the “concentration stated as 1× MIC” value in the test on S. simulans (S. simulans) was 0.5 µM.
